Measured values as given in US12310971B2, “Coffee bean compositions comprising paraxanthine and methods for their production” (RAREBIRD, INC., priority 2021, dated 2025).

Assays:
[1] = in humans; cited from earlier work
[2] = Solubility of paraxanthine in infusion solvents as a function of pH; assay type: physicochemical; settings: dependence on pH
Description: Thus, performing the infusing step at a pH of 7 or higher can be useful to increase the paraxanthine content of the finished paraxanthine coffee. In various embodiments, the pH of the infusion mixture is greater than pH 7. In some embodiments, the pH of the infusion mixture is greater than pH 8. In some embodiments, the pH of the infusion mixture is greater than 8.5. In some embodiments, the pH of the infusion mixture is greater than 9.0. In some embodiments, the pH of the infusion mixture is greater than 9.5.

[3] = Paraxanthine concentration in filtered aqueous stock infusion solution; assay type: physicochemical; settings: 18 grams of paraxanthine mixed in 1 liter of water at 85° C., filtered to remove undissolved paraxanthine
Experimental: In the first, infusing, step, the three batches of green coffee beans were individually infused with paraxanthine dissolved in water, the infusion solvent, to produce green solvated paraxanthine coffee beans. A stock solution of infusion solvent comprising paraxanthine was generated by mixing 18 grams of paraxanthine in 1 liter of water at 85° C.; the solution was then filtered to remove any residual, undissolved paraxanthine. The paraxanthine concentration in the stock solution was approximately 74 mM. Infusions were performed in 250-mL glass jars using 60 grams of green coffee beans and 120 grams of the stock infusion solution. The mixtures were incubated at 85° C. for 1 hour with periodic mixing. Subsequently, the green solvated paraxanthine coffee beans were separated using a colander, rinsed, and residual solvent removed from the surface of the beans. The mass of the infused beans was measured and compared to the mass of the original green coffee beans to determine the infusion solvent content. The moisture contents for batches 1, 2, and 3 were 45.1%, 46.9%, and 44.8%, respectively.

Compound	half-life [1] [h]	solubility of paraxanthine in the infusion solvents [2]	paraxanthine concentration in the stock solution [3]
Cn1c(=O)c2c(ncn2C)n(C)c1=O [caffeine]	4.1 ± 0.8		
Cn1c(=O)[nH]c2ncn(C)c2c1=O [paraxanthine]		increases with increasing pH	approximately 74 mM
